Assay results published in the NIST ThermoML archive (doi:10.1021/je201289w).
± gives the expanded uncertainty stated by the source.

Assay: refractive index (Na D-line) (dimensionless)
Conditions: 283.15 K; 101.33 kPa; Liquid; Standard Abbe refractometry

In order of falling refractive index:
1. CCn1cc[n+](C)c1.N#C[S-] [1-ethyl-3-methylimidazolium thiocyanate]  1.556 ± 0.00064
2. CCn1cc[n+](C)c1.N#CN=C=[N-] [1-ethyl-3-methylimidazolium dicyanamide]  1.51774 ± 0.00066
3. CCn1cc[n+](C)c1.O=S(=O)([O-])O [1-ethyl-3-methylimidazolium hydrogen sulfate]  1.50042 ± 0.00061
4. CCn1cc[n+](C)c1.CS(=O)(=O)[O-] [1-ethyl-3-methylimidazolium methanesulfonate]  1.49994 ± 0.00063
5. CCOS(=O)(=O)[O-].CCn1cc[n+](C)c1 [1-ethyl-3-methylimidazolium ethyl sulfate]  1.48317 ± 0.00062
6. CCn1cc[n+](C)c1.N#C[B-](C#N)(C#N)C#N [1-ethyl-3-methylimidazolium tetracyanoborate]  1.45284 ± 0.00067
7. CCn1cc[n+](C)c1.O=S(=O)([N-]S(=O)(=O)C(F)(F)F)C(F)(F)F  1.42738 ± 0.00063
8. CCC[N+]1(C)CCCC1.O=S(=O)([N-]S(=O)(=O)C(F)(F)F)C(F)(F)F  1.42474 ± 0.00063
9. CCn1cc[n+](C)c1.F[B-](F)(F)F [1-ethyl-3-methylimidazolium tetrafluoroborate]  1.41546 ± 0.00062
10. CCCCn1cc[n+](C)c1.O=S(=O)([N-]S(=O)(=O)C(F)(F)C(F)(F)C(F)(F)C(F)(F)F)C(F)(F)C(F)(F)C(F)(F)C(F)(F)F  1.39249 ± 0.00064

Same assay, conditions: 288.15 K; 101.33 kPa; Liquid; Standard Abbe refractometry

In order of rising refractive index:
1. CCCCn1cc[n+](C)c1.O=S(=O)([N-]S(=O)(=O)C(F)(F)C(F)(F)C(F)(F)C(F)(F)F)C(F)(F)C(F)(F)C(F)(F)C(F)(F)F  1.39104 ± 0.00064
2. CCn1cc[n+](C)c1.F[B-](F)(F)F [1-ethyl-3-methylimidazolium tetrafluoroborate]  1.41423 ± 0.00062
3. CCC[N+]1(C)CCCC1.O=S(=O)([N-]S(=O)(=O)C(F)(F)F)C(F)(F)F  1.42336 ± 0.00063
4. CCn1cc[n+](C)c1.O=S(=O)([N-]S(=O)(=O)C(F)(F)F)C(F)(F)F  1.42594 ± 0.00063
5. CCn1cc[n+](C)c1.N#C[B-](C#N)(C#N)C#N [1-ethyl-3-methylimidazolium tetracyanoborate]  1.45108 ± 0.00066
6. CCOS(=O)(=O)[O-].CCn1cc[n+](C)c1 [1-ethyl-3-methylimidazolium ethyl sulfate]  1.48185 ± 0.00062
7. CCn1cc[n+](C)c1.CS(=O)(=O)[O-] [1-ethyl-3-methylimidazolium methanesulfonate]  1.49855 ± 0.00063
8. CCn1cc[n+](C)c1.O=S(=O)([O-])O [1-ethyl-3-methylimidazolium hydrogen sulfate]  1.49931 ± 0.00061
9. CCn1cc[n+](C)c1.N#CN=C=[N-] [1-ethyl-3-methylimidazolium dicyanamide]  1.51605 ± 0.00066
10. CCn1cc[n+](C)c1.N#C[S-] [1-ethyl-3-methylimidazolium thiocyanate]  1.5545 ± 0.00064

Same assay, conditions: 293.15 K; 101.33 kPa; Liquid; Standard Abbe refractometry

In order of falling refractive index:
1. CCn1cc[n+](C)c1.N#C[S-] [1-ethyl-3-methylimidazolium thiocyanate]  1.55299 ± 0.00064
2. CCn1cc[n+](C)c1.N#CN=C=[N-] [1-ethyl-3-methylimidazolium dicyanamide]  1.51441 ± 0.00065
3. CCn1cc[n+](C)c1.O=S(=O)([O-])O [1-ethyl-3-methylimidazolium hydrogen sulfate]  1.4982 ± 0.00061
4. CCn1cc[n+](C)c1.CS(=O)(=O)[O-] [1-ethyl-3-methylimidazolium methanesulfonate]  1.49718 ± 0.00063
5. CCOS(=O)(=O)[O-].CCn1cc[n+](C)c1 [1-ethyl-3-methylimidazolium ethyl sulfate]  1.48053 ± 0.00062
6. CCn1cc[n+](C)c1.N#C[B-](C#N)(C#N)C#N [1-ethyl-3-methylimidazolium tetracyanoborate]  1.44936 ± 0.00066
7. CCn1cc[n+](C)c1.O=S(=O)([N-]S(=O)(=O)C(F)(F)F)C(F)(F)F  1.42451 ± 0.00063
8. CCC[N+]1(C)CCCC1.O=S(=O)([N-]S(=O)(=O)C(F)(F)F)C(F)(F)F  1.42201 ± 0.00063
9. CCn1cc[n+](C)c1.F[B-](F)(F)F [1-ethyl-3-methylimidazolium tetrafluoroborate]  1.413 ± 0.00062
10. CCCCn1cc[n+](C)c1.O=S(=O)([N-]S(=O)(=O)C(F)(F)C(F)(F)C(F)(F)C(F)(F)F)C(F)(F)C(F)(F)C(F)(F)C(F)(F)F  1.38955 ± 0.00064

Same assay, conditions: 298.15 K; 101.33 kPa; Liquid; Standard Abbe refractometry

In order of rising refractive index:
1. CCCCn1cc[n+](C)c1.O=S(=O)([N-]S(=O)(=O)C(F)(F)C(F)(F)C(F)(F)C(F)(F)F)C(F)(F)C(F)(F)C(F)(F)C(F)(F)F  1.38807 ± 0.00064
2. CCn1cc[n+](C)c1.F[B-](F)(F)F [1-ethyl-3-methylimidazolium tetrafluoroborate]  1.41177 ± 0.00062
3. CCC[N+]1(C)CCCC1.O=S(=O)([N-]S(=O)(=O)C(F)(F)F)C(F)(F)F  1.42064 ± 0.00063
4. CCn1cc[n+](C)c1.O=S(=O)([N-]S(=O)(=O)C(F)(F)F)C(F)(F)F  1.42309 ± 0.00063
5. CCn1cc[n+](C)c1.N#C[B-](C#N)(C#N)C#N [1-ethyl-3-methylimidazolium tetracyanoborate]  1.44763 ± 0.00066
6. CCOS(=O)(=O)[O-].CCn1cc[n+](C)c1 [1-ethyl-3-methylimidazolium ethyl sulfate]  1.47921 ± 0.00062
7. CCn1cc[n+](C)c1.CS(=O)(=O)[O-] [1-ethyl-3-methylimidazolium methanesulfonate]  1.49582 ± 0.00063
8. CCn1cc[n+](C)c1.O=S(=O)([O-])O [1-ethyl-3-methylimidazolium hydrogen sulfate]  1.4971 ± 0.00061
9. CCn1cc[n+](C)c1.N#CN=C=[N-] [1-ethyl-3-methylimidazolium dicyanamide]  1.51278 ± 0.00065
10. CCn1cc[n+](C)c1.N#C[S-] [1-ethyl-3-methylimidazolium thiocyanate]  1.55149 ± 0.00064

Same assay, conditions: 303.15 K; 101.33 kPa; Liquid; Standard Abbe refractometry

In order of falling refractive index:
1. CCn1cc[n+](C)c1.N#C[S-] [1-ethyl-3-methylimidazolium thiocyanate]  1.54999 ± 0.00064
2. CCn1cc[n+](C)c1.N#CN=C=[N-] [1-ethyl-3-methylimidazolium dicyanamide]  1.51121 ± 0.00065
3. CCn1cc[n+](C)c1.O=S(=O)([O-])O [1-ethyl-3-methylimidazolium hydrogen sulfate]  1.49601 ± 0.00061
4. CCn1cc[n+](C)c1.CS(=O)(=O)[O-] [1-ethyl-3-methylimidazolium methanesulfonate]  1.49444 ± 0.00063
5. CCOS(=O)(=O)[O-].CCn1cc[n+](C)c1 [1-ethyl-3-methylimidazolium ethyl sulfate]  1.47789 ± 0.00062
6. CCn1cc[n+](C)c1.N#C[B-](C#N)(C#N)C#N [1-ethyl-3-methylimidazolium tetracyanoborate]  1.44592 ± 0.00066
7. CCn1cc[n+](C)c1.O=S(=O)([N-]S(=O)(=O)C(F)(F)F)C(F)(F)F  1.42166 ± 0.00063
8. CCC[N+]1(C)CCCC1.O=S(=O)([N-]S(=O)(=O)C(F)(F)F)C(F)(F)F  1.41925 ± 0.00063
9. CCn1cc[n+](C)c1.F[B-](F)(F)F [1-ethyl-3-methylimidazolium tetrafluoroborate]  1.41055 ± 0.00062
10. CCCCn1cc[n+](C)c1.O=S(=O)([N-]S(=O)(=O)C(F)(F)C(F)(F)C(F)(F)C(F)(F)F)C(F)(F)C(F)(F)C(F)(F)C(F)(F)F  1.38662 ± 0.00064

Same assay, conditions: 308.15 K; 101.33 kPa; Liquid; Standard Abbe refractometry

In order of rising refractive index:
1. CCCCn1cc[n+](C)c1.O=S(=O)([N-]S(=O)(=O)C(F)(F)C(F)(F)C(F)(F)C(F)(F)F)C(F)(F)C(F)(F)C(F)(F)C(F)(F)F  1.38516 ± 0.00064
2. CCn1cc[n+](C)c1.F[B-](F)(F)F [1-ethyl-3-methylimidazolium tetrafluoroborate]  1.40934 ± 0.00062
3. CCC[N+]1(C)CCCC1.O=S(=O)([N-]S(=O)(=O)C(F)(F)F)C(F)(F)F  1.41792 ± 0.00063
4. CCn1cc[n+](C)c1.O=S(=O)([N-]S(=O)(=O)C(F)(F)F)C(F)(F)F  1.42022 ± 0.00063
5. CCn1cc[n+](C)c1.N#C[B-](C#N)(C#N)C#N [1-ethyl-3-methylimidazolium tetracyanoborate]  1.44421 ± 0.00066
6. CCOS(=O)(=O)[O-].CCn1cc[n+](C)c1 [1-ethyl-3-methylimidazolium ethyl sulfate]  1.47657 ± 0.00062
7. CCn1cc[n+](C)c1.CS(=O)(=O)[O-] [1-ethyl-3-methylimidazolium methanesulfonate]  1.49308 ± 0.00063
8. CCn1cc[n+](C)c1.O=S(=O)([O-])O [1-ethyl-3-methylimidazolium hydrogen sulfate]  1.49489 ± 0.00061
9. CCn1cc[n+](C)c1.N#CN=C=[N-] [1-ethyl-3-methylimidazolium dicyanamide]  1.50963 ± 0.00065
10. CCn1cc[n+](C)c1.N#C[S-] [1-ethyl-3-methylimidazolium thiocyanate]  1.5485 ± 0.00064

Same assay, conditions: 313.15 K; 101.33 kPa; Liquid; Standard Abbe refractometry

In order of falling refractive index:
1. CCn1cc[n+](C)c1.N#C[S-] [1-ethyl-3-methylimidazolium thiocyanate]  1.54702 ± 0.00064
2. CCn1cc[n+](C)c1.N#CN=C=[N-] [1-ethyl-3-methylimidazolium dicyanamide]  1.50808 ± 0.00064
3. CCn1cc[n+](C)c1.O=S(=O)([O-])O [1-ethyl-3-methylimidazolium hydrogen sulfate]  1.49379 ± 0.00061
4. CCn1cc[n+](C)c1.CS(=O)(=O)[O-] [1-ethyl-3-methylimidazolium methanesulfonate]  1.49172 ± 0.00063
5. CCOS(=O)(=O)[O-].CCn1cc[n+](C)c1 [1-ethyl-3-methylimidazolium ethyl sulfate]  1.47528 ± 0.00062
6. CCn1cc[n+](C)c1.N#C[B-](C#N)(C#N)C#N [1-ethyl-3-methylimidazolium tetracyanoborate]  1.44252 ± 0.00066
7. CCn1cc[n+](C)c1.O=S(=O)([N-]S(=O)(=O)C(F)(F)F)C(F)(F)F  1.41881 ± 0.00063
8. CCC[N+]1(C)CCCC1.O=S(=O)([N-]S(=O)(=O)C(F)(F)F)C(F)(F)F  1.41656 ± 0.00063
9. CCn1cc[n+](C)c1.F[B-](F)(F)F [1-ethyl-3-methylimidazolium tetrafluoroborate]  1.4081 ± 0.00062
10. CCCCn1cc[n+](C)c1.O=S(=O)([N-]S(=O)(=O)C(F)(F)C(F)(F)C(F)(F)C(F)(F)F)C(F)(F)C(F)(F)C(F)(F)C(F)(F)F  1.38367 ± 0.00064

Same assay, conditions: 318.15 K; 101.33 kPa; Liquid; Standard Abbe refractometry

In order of falling refractive index:
1. CCn1cc[n+](C)c1.N#CN=C=[N-] [1-ethyl-3-methylimidazolium dicyanamide]  1.50655 ± 0.00064
2. CCOS(=O)(=O)[O-].CCn1cc[n+](C)c1 [1-ethyl-3-methylimidazolium ethyl sulfate]  1.47395 ± 0.00063
3. CCn1cc[n+](C)c1.O=S(=O)([N-]S(=O)(=O)C(F)(F)F)C(F)(F)F  1.4174 ± 0.00063
4. CCC[N+]1(C)CCCC1.O=S(=O)([N-]S(=O)(=O)C(F)(F)F)C(F)(F)F  1.41519 ± 0.00063
5. CCCCn1cc[n+](C)c1.O=S(=O)([N-]S(=O)(=O)C(F)(F)C(F)(F)C(F)(F)C(F)(F)F)C(F)(F)C(F)(F)C(F)(F)C(F)(F)F  1.38222 ± 0.00064
